# From patent publication US6583127B1, “Use of etherlysophospholipids as antiinflammatory agents” (Inkeysa. SA, priority 1998, dated 2003)
# Key:
# [1] = system: bentonite-induced skin edema in mice; experiment: Bentonite-induced skin edema in mice; type: in vivo; settings: for Area (area below the curve of difference between right and left pad diameter) / Inhibition of the inflammatory process: mice; for Inhibition of the inflammatory process: versus inflamed control
# Source text: Mice were individually identified with an ear code and were kept in groups of 6 per cage (Makrolon: 47.6×22.7×14.5 cm). Each cage was individually labelled with the n^o. of the study, type of treatment, doses used and route of administration, as well as the name of the director of the study, number and gender of contained animals, date of arrival and of the beginning of the experiment.
# The animals had free access to mouse standard chow (UAR A04C; Usine d'Alimentation Rationelle, 91360-Villemoisson sur Orge, Francia; lot nos. 70520 and 70722). Drinking water access was ad libitum. The water, supplied by the Compañia de Aguas de Sabadell, S.A., is routinely analysed for the presence of possible contaminants. The temperature in the animal rooms was 22±3° C., with sporadic peaks of 26° C.; air humidity was 60±10%, with sporadic peaks of 80%. Daily light (between 7:00 h and 19:00 h) and dark phases were installed automatically.
# Upon arrival, all animals were allowed to rest in the facilities for 8 days before use in the experiment. Table 2 indicates the six random groups of 10 mice each were set for experimentation.
# The diameter of both hind pads of all mice was measured at day 0 and set as the basal value. Edema was then induced by injecting s.c. 13.3 mg/ml bentonite in 0.03 ml PBS into the right food pad. The corresponding mice were given daily the different compounds orally for 21 days. The inflamed control group was given 0.2 ml PBS only. The diameter of hind pads, as well as the body weight, was then measured every other day.
# In each experimental group the average value, the standard deviation (SD) and the standard error was determined for the two parameters studied (hind pad diameter and body weight). The factor variance analysis (FVA) was used to compare the values obtained in the different groups. Where statistically significant differences were observed, the Duncan-Kramer test for a p<0.05 was applied.
# The area below the curves corresponding to the diameters of the right and left pads was calculated and the evolution of the difference between them were plotted (FIGS. 7 and 8). The anti-inflammatory capacity of the different substances was evaluated as the extent of inhibition of the inflammatory process that was calculated with the formula [formula]
# where C is the area below the inflammed control group and T the area below the different treatment groups.
# [2] = system: PGE2 production in murine fibroblasts 3T3; experiment: PGE2 measurement in 3T3 cells (enzyme immunoassay); type: cell-based, Mouse; settings: for pg PGE2 (intracellular): 3T3 cells, 20 min at 37° C., Control 112 ± 21; for effect on PGE2 production (in words): 3T3 fibroblasts, ionomycin-induced PGE2
# Experimental: Cell culture. Human promyelocytic HL-60 cells and promonocytic U937 cells were grown in RPMI-1640 culture medium supplemented with 10% (v/v) heat-inactivated fetal calf serum, 2 mM L-glutamine, 100 units/ml penicillin and 24 μg/ml gentamicin. Mouse 3T3 fibroblasts were grown in Dulbecco's modified Eagle's medium (DMEM) supplemented with 10% (v/v) heat-inactivated fetal calf serum, 2 mM L-glutamine, 100 units/ml penicillin and 24 μg/ml gentamicin. Cells were incubated at 37° C. in a humidified atmosphere at 5% CO2 and 95% air.
# Prostaglandin E2 (PGE2) measurement. 3T3 cells (1.5×10^5 in 100 μl in complete DMEM culture medium) were incubated overnight at 37° C. (5% CO2) in 96-well microtitre plates (tissue-culture grade). Then, the distinct agents were added in 100 μl complete DMEM culture medium for 20 min at 37° C. After washing thoroughly the cells with PBS, cells were lysed and intracellular PGE2 was measured using an enzyme immunoassay kit (Amersham Pharmacia Biotech, Buckinghamshire, UK) following the manufacturer's instructions. Data obtained in duplicate measurements were converted into actual amounts of PGE2 using a calibration curve run in parallel with defined amounts of PGE2.
# [3] = system: experimental colitis induced by TNB (2,4,6-trinitrobenzenesulphonic acid); experiment: Rat model of experimental colitis induced by TNB, macroscopic evaluation; type: in vivo; set-up: Wet Weight (colon): unit not given beside the values; settings: Wistar rat, 2.5 mg/Kg p.o.; for Wet Weight (colon) / Sample 2 × 6 mm / Score (0-10) / Weight/mm: Mean ± SEM
# Experimental: The therapeutic potential for the treatment of ulcerative colitis of IEC01 at 2.5 and 5 mg/kg and IES01 at 2.5 mg/kg, was evaluated after their administration by oral route during 14 days (7 days of preventive treatment and 7 days of therapeutic treatment) using the rat model of experimental colitis induced by TNB (2,4,6-trinitrobenzenesulphonic acid). As reference parameters, the body weight, wet colon weight and score macroscopic evaluation were evaluated after 24 hours and after 7 days of the intraluminal administration of TNB in the colon. […] The inflammatory response is recognised by the presence of ulcerative fissures, faecal shatters and inflammation of bowel wall. A chronic inflammatory response was observed 7 days after the administration. An erratic response with lineal or punctual ulcers, necrosis, faecal shatters, reduction of colonic lumen, granulomas and peritoneal adherence was observed.
# [4] = Body weight evaluation in the TNB colitis rat model; type: in vivo; settings: Wistar rat, 2.5 mg/Kg p.o.; Mean ± SEM
# Experimental: The therapeutic potential for the treatment of ulcerative colitis of IEC01 at 2.5 and 5 mg/kg and IES01 at 2.5 mg/kg, was evaluated after their administration by oral route during 14 days (7 days of preventive treatment and 7 days of therapeutic treatment) using the rat model of experimental colitis induced by TNB (2,4,6-trinitrobenzenesulphonic acid). As reference parameters, the body weight, wet colon weight and score macroscopic evaluation were evaluated after 24 hours and after 7 days of the intraluminal administration of TNB in the colon.
# [5] = system: PGE2 synthesis in human mucosal gastric biopsies; experiment: Ex vivo PGE2 synthesis in human mucosal gastric biopsies; settings: for pg PGE2/mg (weight): human mucosal gastric biopsies, agents 10 μM, 20 min at 37° C., Control 115 ± 26, mean ± S.D., three experiments
# Experimental: The ability of the gastric mucosa to generate prostaglandins estimates total cyclooxygenase (COX) activity (COX-1 plus any COX-2). To measure ex vivo prostaglandin E2 (PGE2) synthesis, normal gastric mucosal biopsies were immediately placed in Ependorff tubes containing phosphate-buffered saline (PBS). […] Each mucosal gastric biopsy was cut into different pieces (about 1 mg weight) that were subsequently weighed and incubated in the absence or in the presence of the distinct agents indicated in the corresponding Table for 20 min at 37° C. in 200 μl Hepes-glucose buffer. Then cells were mucosal gastric samples were pelleted by centrifugation, lysed and intracellular PGE2 was measured using an enzyme immunoassay kit (Amersham Pharmacia Biotech, Buckinghamshire, UK) following the manufacturer's instructions. Prostaglandin synthesis is expressed as picograms of PGE2 synthesised per mg of tissue incubation. Each experiment corresponded to the use of one biopsy, in order to avoid variability among different biopsies. Normal volunteers without a previous pharmacological treatment were selected for these assays. The normal gastroduodenal mucosa was visually assessed by endoscopy.
# Human mucosal gastric biopsies were cut into about 1 mg pieces, incubated with the indicted agents (10 μM) for 20 min at 37° C. in Hepes-glucose buffer, and then the intracellular content of PGE2 was determined as described in the Methods section. Untreated control samples were run in parallel. Data are shown as mean Values+S.D. from three independent experiments.
# CD11b = experiment: Cell surface expression of CD11b in human neutrophils (immunofluorescence flow cytometry); type: cell-based; settings: 10 ng/ml, rMFI=(MFIagent×100)/MFImedium, Medium = 100
# Source text: (§1) Isolation and treatment of neutrophils.
# (§2) Monoclonal antibodies. […] The antibodies are commercially available.
# (§3) Immunofluorescence flow cytometry. […] Results were expressed as relative MFI (rMFI), such that
# (§4) rMFI=(MFIagent×100)/MFImedium
# (§5) Background fluorescence was substracted from all values.
# CD43 = experiment: Cell surface expression of CD43 in human neutrophils (immunofluorescence flow cytometry); type: cell-based; settings: 10 ng/ml, Medium = 100
# Source text: as §1, §2, §3, §4, §5
# CD44 = experiment: Cell surface expression of CD44 in human neutrophils (immunofluorescence flow cytometry); type: cell-based; settings: 10 ng/ml, Medium = 100
# Source text: as §1, §2, §3, §4, §5
# L-selectin (CD62L) [6] = experiment: Cell surface expression of L-selectin in human neutrophils (immunofluorescence flow cytometry); type: cell-based
# Source text: as §1, §2, §3, §4, §5
# HLA = settings: human neutrophils, 10 ng/ml; Medium = 100
# Experimental: Isolation and treatment of neutrophils. Human neutrophils were obtained from fresh peripheral blood by dextran sedimentation and centrifugation on Ficoll-Hypaque followed by hypotonic lysis of residual erythrocytes. […] Cells were resuspended at 3×10^6 neutrophils/ml in HEPES/glucose buffer (150 mM NaCl, 5 mM KCl, 10 mM HEPES, 1.2 mM MgCl2, 1.3 mM CaCl2, 5.5 mM glucose, pH 7.5), and incubated in the absence or presence of distinct agents at 37° C. for the times indicated in the respective legends to figures. Subsequently, cells were pelleted by centrifugation and saved to determine the content of different cell surface antigens by flow cytometry.
# Monoclonal antibodies. The following monoclonal antibodies were used: TS1/11 anti-CD11a, Bear-1 anti-CD11b, TP1/36.1 anti-CD43, HP2/9 anti-CD44, Leu-8 anti-L-selectin, and W6/32, specific for a monomorphic determinant on HLA-A, B molecules. P3X63 myeloma culture supernatant was used as a negative control. The antibodies are commercially available.
# Immunofluorescence flow cytometry. Immunofluorescence flow cytometry analysis was performed in a FACStar-Plus and a FACScan flow cytometers (Becton-Dickinson). Neutrophils were incubated at 4° C. with the corresponding monoclonal antibody followed by washing and labelling with a fluorescein isothiocyanate (FITC)-labelled-goat anti-mouse IgG antibody (DAKO, Glostrup, Denmark). Mean fluorescence intensity (MFI) in linear scale was obtained from at least 7000 cells in each sample, and the fluorescence produced by the myeloma P3X63 supernatant was considered as background. Results were expressed as relative MFI (rMFI), such that
# as §4, §5
# CD11a = experiment: Cell surface expression of CD11a in human neutrophils (immunofluorescence flow cytometry); type: cell-based; settings: 10 ng/ml, Medium = 100
# Source text: as §1, §2, §3, §4, §5
# L-selectin (CD62L) [7] = settings: literature value, González-Alvaro et al., J. Rheumatol., 23, 723 (1996); cited from earlier work
# [8] = 2.5 mg/kg orally daily for 21 days
# [9] = 5 mg/kg orally daily for 21 days
# [10] = after 24 hours of intraluminal administration
# [11] = after 7 days of intraluminal administration
# [12] = 2 mg/kg orally daily for 21 days
structure (smiles),measurement,setting,value
CCCCCCCCCCCCCCCCOCC(COP(=O)(O)OCC(N)C(=O)O)OC (stereo not drawn) [IES01],"times more efficient in inhibiting inflammation than indomethacin, at the molecular level","[1]; 2.5 mg/kg versus indomethacin 2 mg/kg, taking molecular weights into account",3.8 times
same,Area (area below the curve of difference between right and left pad diameter),[1]; [8],4.4 ± 0.63 A.U.
same,Inhibition of the inflammatory process,[1]; [8],43.8%
same,Area (area below the curve of difference between right and left pad diameter),[1]; [9],5.6 ± 0.70 A.U.
same,Inhibition of the inflammatory process,[1]; [9],28.3%
same,pg PGE2 (intracellular),[2]; 10 μM,192 ± 25 pg
same,effect on PGE2 production (in words),[2],no significant inhibition
same,"% (inhibition, Sample 2 × 6 mm)",[3]; [10],80.2%
same,"% (inhibition, Score)",[3]; [10],65.7%
same,"% (inhibition, Weight/mm)",[3]; [10],75.2%
same,"% (inhibition, Wet Weight)",[3]; [10],75.3%
same,Wet Weight (colon),[3]; after 24 hours of intraluminal administration in the colon,1.425 ± 0.20
same,Sample 2 × 6 mm,[3]; [10],272.70 ± 44.43 mg
same,Score (0-10),[3]; [10],3.2 ± 0.86
same,Weight/mm,[3]; [10],0.158 ± 0.02
same,"% (inhibition, Sample 2 × 6 mm)",[3]; [11],31.7%
same,"% (inhibition, Weight/mm)",[3]; [11],11.1%
same,"% (inhibition, Wet Weight)",[3]; [11],11.1%
same,Wet Weight (colon),[3]; after 7 days of intraluminal administration in the colon,1.365 ± 0.24
same,"% (inhibition, Score)","[3]; after 7 days of intraluminal administration, 2.5 mg/kg",50%
same,Sample 2 × 6 mm,[3]; [11],185.04 ± 23.18 mg
same,Score (0-10),[3]; [11],2.0 ± 0.84
same,Weight/mm,[3]; [11],0.151 ± 0.03
same,Body weight DAY 1,[4],232.3 ± 2.68 g
same,Body weight DAY 2,[4],234.5 ± 2.94 g
same,Body weight DAY 4,[4],241.9 ± 2.40 g
same,Body weight DAY 7,[4],211.4 ± 2.48 g
same,Body weight DAY 8,[4],218.8 ± 3.57 g
same,Body weight DAY 11,[4],244.4 ± 4.95 g
same,Body weight DAY 12,[4],250.0 ± 4.72 g
same,Body weight DAY 13,[4],249.8 ± 6.84 g
same,Body weight DAY 14,[4],254.0 ± 8.44 g
"COc1ccc2c(c1)c(CC(=O)O)c(C)n2C(=O)c1ccc(Cl)cc1 [Indomethacin, reference compound]",Area (area below the curve of difference between right and left pad diameter),[1]; [12],6.6 ± 0.92 A.U.
same,Inhibition of the inflammatory process,[1]; [12],15.3%
same,pg PGE2 (intracellular),[2]; 50 μM,4 ± 2 pg
same,effect on PGE2 production (in words),[2],almost completely inhibited
same,pg PGE2/mg (weight),[5],7 ± 2 pg PGE2/mg
same,effect on mucosal PGE2 synthesis (in words),"[5]; normal mucosal gastric biopsies, ex vivo",completely blocked
"C[C@H](CCC(=O)O)C[C@H](C)C[C@H](C)C(=O)/C=C(\O)[C@H](C)C[C@H](C)C/C=C/[C@@H](C)[C@@H](O)[C@@H](C)[C@@H](O)C[C@@H]1CC[C@@](C)([C@H]2CC[C@@](C)([C@@H](C)O)O2)O1 [Ionomycin, reference compound]",pg PGE2 (intracellular),[2]; 50 μM,486 ± 38 pg
same,pg PGE2/mg (weight),[5],308 ± 31 pg PGE2/mg
"CCCCCCCCCCCCCC(=O)O[C@@H]1[C@@H](C)[C@@]2(O)[C@@H](C=C(CO)C[C@]3(O)C(=O)C(C)=C[C@@H]23)[C@@H]2C(C)(C)[C@]12OC(C)=O [PMA, reference compound]",CD11b cell surface expression (rMFI),CD11b,272 ± 22
same,CD43 cell surface expression (rMFI),CD43,33.5 ± 9
same,CD44 cell surface expression (rMFI),CD44,49.5 ± 11
same,L-Selectin cell surface expression (rMFI),"L-selectin (CD62L) [6]; human neutrophils, 10 ng/ml, Medium = 100",38 ± 7
same,HLA cell surface expression (rMFI),HLA,96 ± 7
same,CD11a cell surface expression (rMFI),CD11a,95 ± 8
"O=C(O)COC(=O)Cc1ccccc1Nc1c(Cl)cccc1Cl [aceclofenac, reference compound]",IC50,"L-selectin (CD62L) [6]; converted from μg/ml values, read-out: IC50 for L-selectin down-regulation, corrected for molecular weight",14.1 µM
same,IC50 for L-selectin down-regulation,L-selectin (CD62L) [7],5 µg/mL
